ChEMBL document CHEMBL1201862, “PubChem BioAssay data set” (2004)
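Five compound concentrations were applied to cells in 96-well plates for 48 hours; endpoints were derived by simple linear interpolation of the resulting dose-response curve. GI50 marks 50% less growth.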 Calls of active or inactive are those of the source. Cut-off read from the data, not from the text of the source: active = GI50 up to about 1.1 µM and inactive = higher. Peptide text beside a SMILES is read from it. * marks the point of attachment. Boc = CC(C)(C)OC(=O)*; OBn = c1ccc(CO*)cc1

What was measured:
Test in all cases: NCI anticancer screen, dose series, 48 h
CCRF-CEM = system: CCRF-CEM
LOX IMVI = system: LOX IMVI
DU-145 = system: DU-145
U-251 = system: U-251
HL-60 = system: HL-60
SK-MEL-5 = system: SK-MEL-5
HCT-116 = system: HCT-116
RPMI-8226 = system: RPMI-8226
MCF7 = system: MCF7
OVCAR-5 = system: OVCAR-5
Malme-3M = system: Malme-3M
M14 = system: M14
SF-295 = system: SF-295
OVCAR-8 = system: OVCAR-8
A498 = system: A498
HOP-92 = system: HOP-92
SW-620 = system: SW-620
IGROV-1 = system: IGROV-1
NCI-H226 = system: NCI-H226
SK-OV-3 = system: SK-OV-3

## O=C(c1ccc2ccccc2c1)C1S(=O)(=O)OCCOS1(=O)=O
CCRF-CEM
  GI50: > 100 µM (inactive)
LOX IMVI
  GI50: > 100 µM (inactive)
DU-145
  GI50: > 100 µM (inactive)
U-251
  GI50: > 100 µM (inactive)
HL-60
  GI50: > 100 µM (inactive)
SK-MEL-5
  GI50: > 100 µM (inactive)
HCT-116
  GI50: > 100 µM (inactive)
RPMI-8226
  GI50: > 100 µM (inactive)
MCF7
  GI50: > 100 µM (inactive)
OVCAR-5
  GI50: > 100 µM (inactive)
Malme-3M
  GI50: > 100 µM (inactive)
M14
  GI50: > 100 µM (inactive)
SF-295
  GI50: > 100 µM (inactive)
OVCAR-8
  GI50: > 100 µM (inactive)

## CC(C)CC(NC(=O)OC(C)(C)C)C(=O)NC(CC(=O)OCc1ccccc1)C(N)=O (stereo not drawn) (Boc-Leu-Asp(OBn)-NH2; configuration not given here)
LOX IMVI
  GI50: > 100 µM (inactive)
DU-145
  GI50: > 100 µM (inactive)
U-251
  GI50: > 100 µM (inactive)
SK-MEL-5
  GI50: > 100 µM (inactive)
HCT-116
  GI50: > 100 µM (inactive)
MCF7
  GI50: > 100 µM (inactive)
A498
  GI50: > 100 µM (inactive)
OVCAR-5
  GI50: > 100 µM (inactive)
HOP-92
  GI50: > 100 µM (inactive)
Malme-3M
  GI50: > 100 µM (inactive)
M14
  GI50: > 100 µM (inactive)
SW-620
  GI50: > 100 µM (inactive)
IGROV-1
  GI50: > 100 µM (inactive)
NCI-H226
  GI50: > 100 µM (inactive)
SF-295
  GI50: > 100 µM (inactive)
OVCAR-8
  GI50: > 100 µM (inactive)
SK-OV-3
  GI50: > 100 µM (inactive)

## CC(=O)c1nc2ccccc2n1CC(=O)c1ccc([N+](=O)[O-])cc1
CCRF-CEM
  GI50: 9.84 µM (inactive)
LOX IMVI
  GI50: 7.26 µM (inactive)
DU-145
  GI50: 31.6 µM (inactive)
U-251
  GI50: 4.38 µM (inactive)
HL-60
  GI50: 13.8 µM (inactive)
HCT-116
  GI50: 8.2 µM (inactive)
RPMI-8226
  GI50: 20.1 µM (inactive)
MCF7
  GI50: 16.7 µM (inactive)
A498
  GI50: 55.2 µM (inactive)
Malme-3M
  GI50: 11.6 µM (inactive)
M14
  GI50: 77.1 µM (inactive)
SW-620
  GI50: 10.6 µM (inactive)
IGROV-1
  GI50: 3.12 µM (inactive)
NCI-H226
  GI50: 21.5 µM (inactive)
SF-295
  GI50: 17.7 µM (inactive)
OVCAR-8
  GI50: 8.49 µM (inactive)
SK-OV-3
  GI50: 31.2 µM (inactive)

## CC1(C)C2CC(O)C1CCC2=O (stereo unspecified)
CCRF-CEM
  GI50: > 100 µM (inactive)
LOX IMVI
  GI50: > 100 µM (inactive)
DU-145
  GI50: > 100 µM (inactive)
U-251
  GI50: > 100 µM (inactive)
HL-60
  GI50: > 100 µM (inactive)
SK-MEL-5
  GI50: > 100 µM (inactive)
HCT-116
  GI50: > 100 µM (inactive)
RPMI-8226
  GI50: > 100 µM (inactive)
MCF7
  GI50: > 100 µM (inactive)
A498
  GI50: > 100 µM (inactive)
OVCAR-5
  GI50: > 100 µM (inactive)
Malme-3M
  GI50: > 100 µM (inactive)
M14
  GI50: > 100 µM (inactive)
NCI-H226
  GI50: > 100 µM (inactive)
SF-295
  GI50: > 100 µM (inactive)
OVCAR-8
  GI50: > 100 µM (inactive)
SK-OV-3
  GI50: > 100 µM (inactive)

## O=[N+]([O-])c1ccc(-n2nc3ccc4nonc4c3n2)cc1
CCRF-CEM
  GI50: > 100 µM (inactive)
LOX IMVI
  GI50: 42.4 µM (inactive)
DU-145
  GI50: 79.6 µM (inactive)
U-251
  GI50: 77.1 µM (inactive)
HL-60
  GI50: > 100 µM (inactive)
SK-MEL-5
  GI50: 31.2 µM (inactive)
HCT-116
  GI50: 74.6 µM (inactive)
RPMI-8226
  GI50: > 100 µM (inactive)
MCF7
  GI50: 20.4 µM (inactive)
OVCAR-5
  GI50: > 100 µM (inactive)
HOP-92
  GI50: 19.6 µM (inactive)
Malme-3M
  GI50: 24.2 µM (inactive)
M14
  GI50: 52.1 µM (inactive)
SW-620
  GI50: > 100 µM (inactive)
IGROV-1
  GI50: 27.9 µM (inactive)
NCI-H226
  GI50: 17.8 µM (inactive)
SF-295
  GI50: 28 µM (inactive)
SK-OV-3
  GI50: 20 µM (inactive)

## c1coc(C2=Nc3cccc4cccc(c34)N2)c1
CCRF-CEM
  GI50: 32.1 µM (inactive)
LOX IMVI
  GI50: 41.9 µM (inactive)
DU-145
  GI50: > 100 µM (inactive)
U-251
  GI50: 69 µM (inactive)
HL-60
  GI50: 19.5 µM (inactive)
SK-MEL-5
  GI50: 34.9 µM (inactive)
HCT-116
  GI50: 23.1 µM (inactive)
RPMI-8226
  GI50: 71.8 µM (inactive)
MCF7
  GI50: 24.1 µM (inactive)
HOP-92
  GI50: 25.5 µM (inactive)
Malme-3M
  GI50: 93.8 µM (inactive)
M14
  GI50: 25.4 µM (inactive)
SW-620
  GI50: 38.6 µM (inactive)
IGROV-1
  GI50: > 100 µM (inactive)
NCI-H226
  GI50: > 100 µM (inactive)
SF-295
  GI50: 34 µM (inactive)
OVCAR-8
  GI50: 39.3 µM (inactive)
SK-OV-3
  GI50: 98.4 µM (inactive)

## O=C1OC(CS(=O)(=O)c2ccccc2)CC1O (stereo unspecified)
CCRF-CEM
  GI50: > 100 µM (inactive)
LOX IMVI
  GI50: > 100 µM (inactive)
DU-145
  GI50: > 100 µM (inactive)
U-251
  GI50: > 100 µM (inactive)
SK-MEL-5
  GI50: > 100 µM (inactive)
HCT-116
  GI50: > 100 µM (inactive)
RPMI-8226
  GI50: > 100 µM (inactive)
MCF7
  GI50: > 100 µM (inactive)
A498
  GI50: > 100 µM (inactive)
OVCAR-5
  GI50: > 100 µM (inactive)
Malme-3M
  GI50: 22.6 µM (inactive)
M14
  GI50: > 100 µM (inactive)
SW-620
  GI50: > 100 µM (inactive)
IGROV-1
  GI50: > 100 µM (inactive)
NCI-H226
  GI50: > 100 µM (inactive)
SF-295
  GI50: > 100 µM (inactive)
OVCAR-8
  GI50: > 100 µM (inactive)
SK-OV-3
  GI50: > 100 µM (inactive)

## CCCC(=O)Nc1cc(/C=C/C(=O)N2CC(CCl)c3ccc([N+](=O)[O-])cc32)n(C)c1 (stereo unspecified)
CCRF-CEM
  GI50: 0.568 µM (active)
LOX IMVI
  GI50: 73.5 µM (inactive)
DU-145
  GI50: > 100 µM (inactive)
U-251
  GI50: > 100 µM (inactive)
HCT-116
  GI50: 56 µM (inactive)
RPMI-8226
  GI50: 14.5 µM (inactive)
MCF7
  GI50: 68.7 µM (inactive)
A498
  GI50: < 0.01 µM (active)
OVCAR-5
  GI50: > 100 µM (inactive)
Malme-3M
  GI50: > 100 µM (inactive)
M14
  GI50: > 100 µM (inactive)
SW-620
  GI50: > 100 µM (inactive)
IGROV-1
  GI50: 65 µM (inactive)
NCI-H226
  GI50: 21.8 µM (inactive)
SF-295
  GI50: 44.1 µM (inactive)
OVCAR-8
  GI50: 30.3 µM (inactive)
SK-OV-3
  GI50: > 100 µM (inactive)
